Like-named read-outs stand apart in the source and are kept apart here.
Tests used:
HBV rcDNA = assay: Dual agent combination in HepDE19 cells, rcDNA by Quantigene 2.0 bDNA assay (Examples 5-8); assay type: cell-based, HBV; HepDE19 (HepG2 human hepatocarcinoma derived); details: Hepatitis B virus; for inhibition at 0.002 µM: TAF 0.002 μM alone; for inhibition at 0.007 µM: TAF 0.007 μM alone; for inhibition at 0.02 µM: TAF 0.020 μM alone; for inhibition at 0.06 µM: TAF 0.060 μM alone; for inhibition at 0.001 µM: TAF 0.001 μM alone; for inhibition at 0.003 µM: TAF 0.003 μM alone; for inhibition at 0.005 µM: TAF 0.005 μM alone; for inhibition at 0.01 µM: TAF 0.010 μM alone; for inhibition at 0.04 µM: TAF 0.040 μM alone; for inhibition at 0.08 µM: TAF 0.080 μM alone; for inhibition at 0.16 µM: TAF 0.160 μM alone; for inhibition at 0.32 µM: TAF 0.320 μM alone
Protocol: In vitro dual agent combination studies were conducted using the method of Prichard and Shipman 1990 (Prichard M N, Shipman C, Jr. 1990. Antiviral Res 14:181-205). The HepDE19 cell culture system is a HepG2 (human hepatocarcinoma) derived cell line that supports HBV DNA replication and cccDNA formation under control the control of a CMV Tet-off promoter system (Guo et al. 2007. J Virol 81:12472-84). HepDE19 (50,000 cells/well) were plated in 96 well collagen-coated tissue-culture treated microtiter plates in DMEM/F12 medium supplemented with 10% fetal bovine serum+1% penicillin-streptomycin with tetracycline (1 μg/mL) and incubated in a humidified incubator at 37° C. and 5% CO2 overnight. Next day, the cells were switched to fresh medium without tetracycline and incubated for 4 hrs at 37° C. and 5% CO2. The cells were switched to fresh medium and treated with inhibitor A and inhibitor B, at concentration range spanning their respective EC50 values. […] The two inhibitors were tested both singly as well as in combinations in a checkerboard fashion such that each concentration of inhibitor A was combined with each concentration of inhibitor B to determine their combination effects on inhibition of rcDNA production. There were four replicates of each concentration combination in each experiment. The plates were incubated for 7 days in a humidified incubator at 37° C. and 5% CO2. The level of rcDNA present in the wells was measured using a Quantigene 2.0 bDNA assay kit (Affymetrix, Santa Clara, Calif.) with HBV specific custom probe set (genotype D ayw) and according to the manufacturer's instructions and read using a luminescence plate reader and the relative luminescence units (RLU) data generated from each well was calculated as % inhibition of the untreated control wells and analyzed using the MacSynergy II program to determine whether the combinations were synergistic, additive or antagonistic using the interpretive guidelines established by Prichard and Shipman (Prichard M N, Shipman C, Jr. 1990. […] Each experiment was repeated at least three times and the averages and standard deviations of individual determinations was calculated to derive the conclusion. Concurrently, in each experiment, the effect of inhibitor combinations on cell viability was assessed using replicate plates in triplicates that were used to determine the ATP content as a measure of cell viability using the Cell-Titer Glo reagent (Promega, Madison, Wis.) as per the manufacturer's instructions.

HepG2.2.15 cells = assay type: cell-based, human; details: Cmpd 2 μM: 0.01, 0.0032, 0.001, 0.0003, 0.0001, 0
Text: The combination results were completed in duplicate with each assay consisting of 4 technical repeats.
The combination results were completed in duplicate with each assay consisting of 4 technical repeats. In this assay system, the combination results in additive inhibition of HBV DNA.

[1] = HepDE19, read-out: AVERAGE % INHIBITION, Expt 1
[2] = HepDE19, read-out: AVERAGE % INHIBITION, Expt 2
[3] = HepDE19, read-out: AVERAGE % INHIBITION, Expt 3
[4] = HepDE19, read-out: AVERAGE % INHIBITION, Expt 4

Q: For CC(C)OC(=O)[C@H](C)N[P@](=O)(CO[C@H](C)Cn1cnc2c(N)ncnc21)Oc1ccccc1 [TAF, tenofovir alafenamide], which inhibition at 0.002 µM (HBV rcDNA; [1]) is on record?
A: -55.3%

Q: And the inhibition at 0.007 µM (HBV rcDNA; [1])?
A: -30.2%

Q: And the inhibition at 0.02 µM (HBV rcDNA; [1])?
A: -1.17%

Q: What about the inhibition at 0.06 µM (HBV rcDNA; [1]) of the same compound?
A: 67%

Q: And the inhibition at 0.002 µM (HBV rcDNA; [2])?
A: 9.84%

Q: What about the inhibition at 0.007 µM (HBV rcDNA; [2]) of the same compound?
A: 24.9%

Q: And the inhibition at 0.02 µM (HBV rcDNA; [2])?
A: 65.5%

Q: What about the inhibition at 0.06 µM (HBV rcDNA; [2]) of the same compound?
A: 89.4%

Q: And the inhibition at 0.001 µM (HBV rcDNA; [3])?
A: -134%

Q: What about the inhibition at 0.003 µM (HBV rcDNA; [3]) of the same compound?
A: -49.2%

Q: And the inhibition at 0.005 µM (HBV rcDNA; [3])?
A: -42.3%

Q: And the inhibition at 0.01 µM (HBV rcDNA; [3])?
A: -48.4%

Q: And the inhibition at 0.02 µM (HBV rcDNA; [3])?
A: -34.3%

Q: And the inhibition at 0.04 µM (HBV rcDNA; [3])?
A: 37%

Q: And the inhibition at 0.08 µM (HBV rcDNA; [3])?
A: 57.1%

Q: And the inhibition at 0.16 µM (HBV rcDNA; [3])?
A: 88%

Q: What about the inhibition at 0.32 µM (HBV rcDNA; [3]) of the same compound?
A: 94.8%

Q: What about the inhibition at 0.001 µM (HBV rcDNA; [4]) of the same compound?
A: 9.66%

Q: And the inhibition at 0.003 µM (HBV rcDNA; [4])?
A: -0.11%

Q: And the inhibition at 0.005 µM (HBV rcDNA; [4])?
A: -1.36%

Q: And the inhibition at 0.01 µM (HBV rcDNA; [4])?
A: 0.94%

Q: And the inhibition at 0.02 µM (HBV rcDNA; [4])?
A: 36.6%

Q: And the inhibition at 0.04 µM (HBV rcDNA; [4])?
A: 61.8%

Q: And the inhibition at 0.08 µM (HBV rcDNA; [4])?
A: 57.2%

Q: And the inhibition at 0.16 µM (HBV rcDNA; [4])?
A: 83.6%

Q: What about the inhibition at 0.32 µM (HBV rcDNA; [4]) of the same compound?
A: 95.9%

Q: And the EC50 (HBV rcDNA; HepDE19, read-out: Avg. Inhibitor B EC50)?
A: 44 nM

Q: And the “Average percent of cell viability vs control” value (“Average percent” for short) (HepG2.2.15 cells; TAF 0.0002 μM)?
A: 103.95%

Q: And the “Average percent” value (HepG2.2.15 cells; TAF 0.0006 μM)?
A: 104.32%

Q: What about the “Average percent” value (HepG2.2.15 cells; TAF 0.0020 μM) of the same compound?
A: 103.73%

Q: And the “Average percent” value (HepG2.2.15 cells; TAF 0.0064 μM)?
A: 101.18%

Q: What about the “Average percent” value (HepG2.2.15 cells; TAF 0.0201 μM) of the same compound?
A: 101.33%

Q: What about the “Average percent” value (HepG2.2.15 cells; TAF 0.0634 μM) of the same compound?
A: 103.56%

Q: And the “Average percent” value (HepG2.2.15 cells; TAF 0.2002 μM)?
A: 96.48%

Q: And the “Average percent” value (HepG2.2.15 cells; TAF 0.6329 μM)?
A: 80.67%

Q: What about the “Average percent” value (HepG2.2.15 cells; TAF 2.0 μM) of the same compound?
A: 88.67%

Reference: patent US20220168430A1, “THERAPEUTIC METHODS FOR TREATING HEPATITIS B” (priority 2019, published 2022)
